Measurements taken from patent US9126978B2, “1,4-benzodiazepine-2,5-diones and related compounds with therapeutic properties” (The Regents of the University of Michigan, priority 2009, dated 2015).

How the values were obtained:
[1] = target: ROCK-II (h, amino acids 11-552) (Homo sapiens (Human), UniProt O75116); assay: ROCK-II (h) inhibition assay; type: biochemical; conditions: radiometric [γ-32P-ATP] filter assay, 40 minutes at room temperature; read-out: ROCK2 IC50
Experimental: ROCK-II (h) Inhibition Assay:
In a final reaction volume of 25 μL, ROCK-II (h, amino acids 11-552) (5-10 mU) was incubated with 50 mM Tris pH 7.5, 0.1 mM EGTA, 30 μM […], 10 mM magnesium acetate and [γ-^32P-ATP] (specific activity approx. 500 cpm/pmol, concentration as required). The reaction was initiated by the addition of the MgATP mix. After incubation for 40 minutes at room temperature, the reaction was stopped by the addition of 5 μL of a 3% phosphoric acid solution. 10 μL of the reaction was then spotted onto a P30 filter-mat and washed three times for 5 minutes in 75 mM phosphoric acid and once in methanol prior to drying and scintillation counting.

[2] = target: ROCK-I (h, amino acids 17-535) (Homo sapiens (Human), UniProt Q13464); assay: ROCK-I (h) inhibition assay; type: biochemical; conditions: radiometric [γ-32P-ATP] filter assay, 40 minutes at room temperature; read-out: ROCK1 IC50
Sequence of ROCK-I (h, amino acids 17-535) (Q13464 17-535): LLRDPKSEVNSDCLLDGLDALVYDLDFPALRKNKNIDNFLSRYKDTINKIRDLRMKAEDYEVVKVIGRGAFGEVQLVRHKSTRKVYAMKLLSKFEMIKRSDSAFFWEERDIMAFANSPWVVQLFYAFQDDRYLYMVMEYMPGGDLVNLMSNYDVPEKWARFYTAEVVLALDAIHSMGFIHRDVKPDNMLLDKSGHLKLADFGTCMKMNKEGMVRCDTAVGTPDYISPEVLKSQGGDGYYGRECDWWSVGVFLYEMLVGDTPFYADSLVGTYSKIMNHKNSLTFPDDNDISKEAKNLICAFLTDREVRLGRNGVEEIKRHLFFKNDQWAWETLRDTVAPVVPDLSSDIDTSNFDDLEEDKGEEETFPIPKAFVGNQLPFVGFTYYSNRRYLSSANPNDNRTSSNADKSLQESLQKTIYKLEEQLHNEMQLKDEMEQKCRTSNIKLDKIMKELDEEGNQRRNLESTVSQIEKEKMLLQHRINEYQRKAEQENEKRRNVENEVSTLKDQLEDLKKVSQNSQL
Experimental: ROCK-I (h) Inhibition Assay:
In a final reaction volume of 25 μL, ROCK-I (h, amino acids 17-535) (5-10 mU) was incubated with 8 mM MOPS pH 7.0, 0.2 mM EDTA, 30 μM […], 10 mM magnesium acetate and [γ-^32P-ATP] (specific activity approx. 500 cpm/pmol, concentration as required). The reaction was initiated by the addition of the MgATP mix. After incubation for 40 minutes at room temperature, the reaction was stopped by the addition of 5 μL of a 3% phosphoric acid solution. 10 μL of the reaction was then spotted onto a P30 filtermat and washed three times for 5 minutes in 75 mM phosphoric acid and once in methanol prior to drying and scintillation counting.

Sequence of ROCK-II (h, amino acids 11-552) (O75116 11-552): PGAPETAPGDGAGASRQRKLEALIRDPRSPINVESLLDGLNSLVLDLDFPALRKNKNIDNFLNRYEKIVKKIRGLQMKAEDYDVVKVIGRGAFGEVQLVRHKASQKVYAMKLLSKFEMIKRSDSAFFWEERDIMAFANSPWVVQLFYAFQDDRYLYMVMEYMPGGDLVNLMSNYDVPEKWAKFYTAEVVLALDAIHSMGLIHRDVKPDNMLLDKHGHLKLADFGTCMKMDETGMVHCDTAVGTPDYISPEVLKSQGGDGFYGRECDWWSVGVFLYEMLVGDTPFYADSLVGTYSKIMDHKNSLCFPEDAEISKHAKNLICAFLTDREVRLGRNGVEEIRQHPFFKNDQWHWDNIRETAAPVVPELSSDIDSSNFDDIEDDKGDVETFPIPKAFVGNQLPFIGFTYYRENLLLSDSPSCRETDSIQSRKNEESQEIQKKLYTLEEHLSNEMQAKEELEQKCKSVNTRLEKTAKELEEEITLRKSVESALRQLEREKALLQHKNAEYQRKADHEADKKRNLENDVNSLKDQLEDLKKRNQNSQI

SMILES	IC50 [1] [nM]	IC50 [2] [nM]
CN1C(=O)[C@@H](Cc2ccc(-c3ccncc3)cc2)NC(=O)c2cc(Cl)ccc21 [Compound 1, (R)-7-chloro-1-methyl-3-(4-(pyridin-4-yl)benzyl)-3,4-dihydro-1H-benzo[e][1,4]diazepine-2,5-dione]	1100	> 30000
C[C@@]1(Cc2ccc(-c3ccncc3)cc2)NC(=O)c2cc(Cl)ccc2NC1=O [Compound 2, (S)-7-chloro-3-methyl-3-(4-(pyridin-4-yl)benzyl)-3,4-dihydro-1H-benzo[e][1,4]diazepine-2,5-dione]		> 10000
CN1C(=O)[C@@H](Cc2ccc(-c3ccncc3)cc2)NC(=O)c2c(Cl)cccc21 [Compound 3, (R)-6-chloro-1-methyl-3-(4-(pyridin-4-yl)benzyl)-3,4-dihydro-1H-benzo[e][1,4]diazepine-2,5-dione]	860	> 30000

More lines, now with the values ahead:

IC50 [1] [nM]	IC50 [2] [nM]	SMILES
800	> 10000	CN1C(=O)[C@@H](Cc2ccc(-c3ccncc3)cc2)NC(=O)c2ccc(Cl)cc21 [Compound 4, (R)-8-chloro-1-methyl-3-(4-(pyridin-4-yl)benzyl)-3,4-dihydro-1H-benzo[e][1,4]diazepine-2,5-dione]
	> 10000	CN1C(=O)[C@@H](Cc2ccc(-c3ccncc3)cc2)NC(=O)c2cccc(Cl)c21 [Compound 5, (R)-9-chloro-1-methyl-3-(4-(pyridin-4-yl)benzyl)-3,4-dihydro-1H-benzo[e][1,4]diazepine-2,5-dione]
